Experiment: xn = mol fraction of the nth substance listed

COCCn1cc[n+](C)c1.N#C[S-] + O=C1CCCO1
101 kPa
Conditions | electrical conductivity [S/m] | viscosity [mPa·s]
288.15 K, x1 = 0.7036 | 0.526 | 34.8
288.15 K, x1 = 1 | 0.223 | 86
293.15 K, x1 = 0.8038 | 0.505 | 39.2
298.15 K, x1 = 0.3001 | 1.63 | 4.18
298.15 K, x1 = 1 | 0.41 | 53
303.15 K, x1 = 0.3001 | 1.8 | 3.68
308.15 K, x1 = 0.6015 | 1.36 | 9.6
308.15 K, x1 = 0.9012 | 0.791 | 27.2
313.15 K, x1 = 0.1027 | 1.99 | 1.82
313.15 K, x1 = 0.5006 | 1.79 | 5.6
313.15 K, x1 = 0.7036 | 1.33 | 11.8
318.15 K, x1 = 0.3001 | 2.44 | 2.59
318.15 K, x1 = 0.4001 | 2.25 | 3.46
323.15 K, x1 = 0.1999 | 2.68 | 1.85
323.15 K, x1 = 0.4001 | 2.48 | 3.1
323.15 K, x1 = 0.5006 | 2.25 | 4.26
323.15 K, x1 = 0.7036 | 1.75 | 8.8
328.15 K, x1 = 0.9012 | 1.52 | 13.9
333.15 K, x1 = 0.1027 | – | 1.3
338.15 K, x1 = 0.6015 | 2.74 | 4.26
338.15 K, x1 = 0.7036 | 2.46 | 6
343.15 K, x1 = 0.5006 | 3.3 | 2.71
343.15 K, x1 = 0.7036 | 2.7 | 5.4

CCCC[n+]1ccn(C)c1.[Br-] + O=C1O[C@H]([C@@H](O)CO)C(O)=C1O + O
viscosity [mPa·s], 100 kPa
Conditions | 293.15 K | 298.15 K | 303.15 K | 308.15 K | 313.15 K | 318.15 K
x2 = 0, x1 = 0.0009002 | 1.033 | 0.918 | 0.823 | 0.753 | 0.676 | 0.618
x2 = 0, x1 = 0.001799 | 1.057 | 0.938 | 0.84 | 0.758 | 0.689 | 0.631
x2 = 0, x1 = 0.002696 | 1.069 | 1 | 0.905 | 0.795 | 0.749 | 0.68
x2 = 0.0003657, x1 = 0.0008999 | 1.04 | 0.925 | 0.831 | 0.761 | 0.684 | 0.626
x2 = 0.0003693, x1 = 0.001798 | 1.064 | 0.945 | 0.847 | 0.765 | 0.696 | 0.638
x2 = 0.000373, x1 = 0.002695 | 1.073 | 1.005 | 0.912 | 0.802 | 0.756 | 0.687
x2 = 0.0007293, x1 = 0.0008995 | 1.048 | 0.933 | 0.839 | 0.769 | 0.691 | 0.633
x2 = 0.0007366, x1 = 0.001797 | 1.071 | 0.952 | 0.854 | 0.772 | 0.703 | 0.645
x2 = 0.0007401, x1 = 0.002694 | 1.08 | 1.013 | 0.919 | 0.808 | 0.763 | 0.695
x2 = 0.001093, x1 = 0.0008992 | 1.055 | 0.94 | 0.845 | 0.775 | 0.697 | 0.639
x2 = 0.0011, x1 = 0.001797 | 1.081 | 0.961 | 0.862 | 0.78 | 0.71 | 0.651
x2 = 0.001111, x1 = 0.002693 | 1.088 | 1.02 | 0.927 | 0.816 | 0.77 | 0.701
x2 = 0.001456, x1 = 0.0008989 | 1.063 | 0.947 | 0.851 | 0.781 | 0.703 | 0.644
x2 = 0.001467, x1 = 0.001796 | 1.09 | 0.969 | 0.869 | 0.786 | 0.716 | 0.657
x2 = 0.001485, x1 = 0.002692 | 1.097 | 1.029 | 0.935 | 0.823 | 0.777 | 0.708
x2 = 0.001819, x1 = 0.0008986 | 1.071 | 0.954 | 0.859 | 0.788 | 0.71 | 0.65
x2 = 0.001833, x1 = 0.001795 | 1.097 | 0.976 | 0.876 | 0.793 | 0.723 | 0.664
x2 = 0.001851, x1 = 0.002691 | 1.106 | 1.038 | 0.941 | 0.83 | 0.785 | 0.715
x2 = 0.002183, x1 = 0.0008982 | 1.079 | 0.961 | 0.865 | 0.795 | 0.717 | 0.657
x2 = 0.002201, x1 = 0.001795 | 1.104 | 0.982 | 0.882 | 0.798 | 0.728 | 0.669
x2 = 0.002221, x1 = 0.00269 | 1.114 | 1.045 | 0.948 | 0.837 | 0.792 | 0.722

From the CheMixHub ionic liquid set
